Patent US7951815B2, “Substituted 1,4,8-triazaspiro [4,5]decan-2-one compounds” (Gruenenthal GmbH, priority 2004, dated 2011)
Read-outs that look alike come from different tables or passages of the source.

Assays:
5-HT transporter = molecular target: T1, 5-HT transporter (Rattus norvegicus, UniProt P31652); experiment: Inhibition of 5-HT uptake in rat brain synaptosomes; type: biochemical; conditions: rat, 1 μM; for inhibition at 1 µM: read-out: Uptake 5-HT, % inhibition
T1 construct: synaptosomes of rat brain areas are freshly isolated; from tissue; host or cells: rat brain synaptosomes (P2 fraction) from marrow and pons

[1] = system: batrachotoxin (BTX) binding site of the sodium channel; experiment: Affinity to the batrachotoxin (BTX) binding site of the sodium channel; conditions: rat cerebrocortex synaptosomes, test concentration not given

T1 sequence (P31652 whole entry): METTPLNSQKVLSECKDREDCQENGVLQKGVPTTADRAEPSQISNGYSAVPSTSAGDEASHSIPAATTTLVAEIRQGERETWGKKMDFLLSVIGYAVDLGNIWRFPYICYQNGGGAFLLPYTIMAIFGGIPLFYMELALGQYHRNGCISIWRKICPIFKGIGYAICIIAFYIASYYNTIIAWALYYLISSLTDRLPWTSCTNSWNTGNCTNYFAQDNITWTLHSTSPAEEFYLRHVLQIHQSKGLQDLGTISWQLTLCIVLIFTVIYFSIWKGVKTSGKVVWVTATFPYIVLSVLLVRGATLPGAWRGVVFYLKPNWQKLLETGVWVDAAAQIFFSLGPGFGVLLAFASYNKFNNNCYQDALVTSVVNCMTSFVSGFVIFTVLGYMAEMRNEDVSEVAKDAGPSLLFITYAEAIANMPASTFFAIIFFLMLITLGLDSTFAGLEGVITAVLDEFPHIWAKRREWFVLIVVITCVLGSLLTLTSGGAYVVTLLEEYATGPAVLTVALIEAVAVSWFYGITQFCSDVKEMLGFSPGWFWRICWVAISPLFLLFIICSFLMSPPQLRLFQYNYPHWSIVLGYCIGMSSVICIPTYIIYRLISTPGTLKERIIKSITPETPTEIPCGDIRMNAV

Compound	inhibition at 1 µM (5-HT transporter; Table III)	BTX inhibition ([1]; Table III)	also measured
CC(C)C1NC2(CCN(C(=O)c3ccccc3C(=O)OCc3ccccc3)CC2)N(Cc2ccccc2)C1=O (stereo not shown) [Example 236, Benzyl 2-(1-benzyl-3-isopropyl-2-oxo-1,4,8-triazaspiro[4,5]decan-8-carbonyl)benzoate]	48%	50	–
CSCCC1NC2(CCN(C(=O)c3cccc(OC(F)(F)F)c3)CC2)N(Cc2cccc(C#N)c2)C1=O (stereo not shown) [Example 200, 3-[3-(2-Methylsulfanylethyl)-2-oxo-8-(3-trifluoromethoxybenzoyl)-1,4,8-triazaspiro[4,5]dec-1-ylmethyl]benzonitrile]	45%	44	–
COC(=O)c1ccc(CN2C(=O)CNC23CCN(C(=O)c2ccc(C(C)(C)C)cc2)CC3)cc1 [Example 305, Methyl 4-[8-(4-tert-Butylbenzoyl)-2-oxo-1,4,8-triazaspiro[4,5]dec-1-ylmethyl]benzoate]	37%	51	–
O=C(CCCOc1ccccc1)N1CCC2(CC1)NC(Cc1ccccc1)C(=O)N2Cc1ccccc1 (stereo not shown) [Example 209, 1,3-Dibenzyl-8-(4-phenoxybutyryl)-1,4,8-triazaspiro[4,5]decan-2-one]	69%	67	–
CSCCC1NC2(CCN(C(=O)c3c(Cl)ccc(C)c3F)CC2)N(Cc2ccccc2)C1=O (stereo not shown) [Example 240, 1-Benzyl-8-(6-chloro-2-fluoro-3-methylbenzoyl)-3-(2-methylsulfanylethyl)-1,4,8-triazaspiro[4,5]decan-2-one]	54%	30	–
CC(C)CC1NC2(CCN(C(=O)c3ccc(Cl)nc3)CC2)N(Cc2c(Cl)cccc2Cl)C1=O (stereo not shown) [Example 279, 8-(6-Chloropyridin-3-carbonyl)-1-(2,6-dichlorobenzyl)-3-isobutyl-1,4,8-triazaspiro[4,5]decan-2-one]	48%	60	–
Cc1onc(-c2c(F)cccc2Cl)c1C(=O)N1CCC2(CC1)NC(=O)C(C(C)C)N2 (stereo not shown) [Example 149, 8-[3-(2-Chloro-6-fluorophenyl)-5-methylisoxazole-4-carbonyl]-3-isopropyl-1,4,8-triazaspiro[4,5]decan-2-one]	33%	33	–
Cc1nn(-c2ccccc2)nc1C(=O)N1CCC2(CC1)NC(Cc1ccccc1)C(=O)N2C (stereo not shown) [Example 168, 3-Benzyl-1-methyl-8-(5-methyl-2-phenyl-2H-[1,2,3]triazole-4-carbonyl)-1,4,8-triazaspiro[4,5]decan-2-one]	46%	44	–
O=C(c1ccc(Br)cc1)N1CCC2(CC1)NC(Cc1ccccc1)C(=O)N2Cc1ccccc1 (stereo not shown) [Example 105, 1,3-Dibenzyl-8-(4-bromobenzoyl)-1,4,8-triazaspiro[4,5]decan-2-one]	68%	66	–
Cl.O=C(c1ccc(F)cc1)N1CCC2(CC1)N[C@@H](Cc1ccccc1)C(=O)N2Cc1ccccc1 [Example 62, 1,3-(S)-dibenzyl-8-(4-fluorobenzoyl)-1,4,8-triazaspiro[4,5]decan-2-one hydrochloride]	–	–	inhibition at 1 µM (5-HT transporter; Table II): 87%; BTX inhibition ([1]; Table II): 48
CCOC(=O)CN1C(=O)C(CC(C)C)NC12CCN(C(=O)CC(C)C)CC2 (stereo not shown) [Example 288, Ethyl [3-isobutyl-8-(3-methylbutyryl)-2-oxo-1,4,8-triazaspiro[4,5]dec-1-yl]acetate]	45%	32	–
Cl.O=C(c1ccco1)N1CCC2(CC1)N[C@@H](Cc1ccccc1)C(=O)N2Cc1ccccc1 [Example 60, 1,3-(S)-dibenzyl-8-(furan-2-carbonyl)-1,4,8-triazaspiro[4,5]decan-2-one hydrochloride]	–	–	inhibition at 1 µM (5-HT transporter; Table II): 80%; BTX inhibition ([1]; Table II): 39
CCCCN1C(=O)C(Cc2ccccc2)NC12CCN(C(=O)c1cc(F)ccc1C(F)(F)F)CC2 (stereo not shown) [Example 175, 3-Benzyl-1-butyl-8-(5-fluoro-2-trifluoromethylbenzoyl)-1,4,8-triazaspiro[4,5]decan-2-one]	69%	38	–
CCOC(=O)CN1C(=O)C(Cc2ccccc2)NC12CCN(C(=O)CC(C)C)CC2 (stereo not shown) [Example 294, Ethyl [3-benzyl-8-(3-methylbutyryl)-2-oxo-1,4,8-triazaspiro[4,5]dec-1-yl]acetate]	53%	33	–
COc1ccc(CN2C(=O)[C@H](Cc3ccccc3)NC23CCN(C(=O)c2ccc(Cl)cc2)CC3)cc1.Cl (racemic) [Example 27, 3-(S,R)-benzyl-8-(4-chloro-benzoyl)-1-(4-methoxy-benzyl)-1,4,8-triazaspiro[4,5]decan-2-one hydrochloride]	–	–	Uptake 5-HT, rat, 1 μM, % inhibition (5-HT transporter; Table II): 78%; BTX inhibition ([1]; Table II): 79
CCSc1ncccc1C(=O)N1CCC2(CC1)NC(Cc1ccccc1)C(=O)N2Cc1ccccc1 (stereo not shown) [Example 145, 1,3-Dibenzyl-8-(2-ethylsulfanylpyridin-3-carbonyl)-1,4,8-triazaspiro[4,5]decan-2-one]	89%	64	–
C=CCN1C(=O)C(C(C)C)NC12CCN(C(=O)Cc1cccc(OC)c1)CC2 (stereo not shown) [Example 296, 1-Allyl-3-isopropyl-8-[2-(3-methoxyphenyl)acetyl]-1,4,8-triazaspiro[4,5]decan-2-one]	30%	36	–

Compound	inhibition at 1 µM (5-HT transporter; Table III)	BTX inhibition ([1]; Table III)	also measured
COC(=O)c1ccc(CN2C(=O)CNC23CCN(C(=O)c2cc(C(C)(C)C)oc2C)CC3)cc1 [Example 292, Methyl 4-[8-(5-tert-butyl-2-methylfuran-3-carbonyl)-2-oxo-1,4,8-triazaspiro[4,5]dec-1-ylmethyl]benzoate]	40%	40	–
CC(C)(C)CC(=O)N1CCC2(CC1)NC(Cc1ccccc1)C(=O)N2Cc1ccccc1 (stereo not shown) [Example 230, 1,3-Dibenzyl-8-(3,3-dimethylbutyryl)-1,4,8-triazaspiro[4,5]decan-2-one]	72%	30	–
CN1C(=O)C(Cc2ccccc2)NC12CCN(C(=O)C=Cc1ccccc1Cl)CC2 (stereo not shown) [Example 203, 3-Benzyl-8-[3-(2-chlorophenyl)acryloyl]-1-methyl-1,4,8-triazaspiro[4,5]decan-2-one]	34%	48	–
Cl.O=C(c1cccc(F)c1F)N1CCC2(CC1)N[C@@H](Cc1ccccc1)C(=O)N2Cc1ccccc1 [Example 54, 1,3-(S)-dibenzyl-8-(2,3-difluorobenzoyl)-1,4,8-triazaspiro[4,5]decan-2-one hydrochloride]	–	–	inhibition at 1 µM (5-HT transporter; Table II): 81%; BTX inhibition ([1]; Table II): 37
CCC(CC)C(=O)N1CCC2(CC1)N[C@@H](Cc1ccccc1)C(=O)N2Cc1ccc(OC)cc1.Cl (racemic) [Example 30, 3-(S,R)-benzyl-8-(2-ethylbutyryl)-1-(4-methoxybenzyl)-1,4,8-triazaspiro[4,5]decan-2-one hydrochloride]	–	–	Uptake 5-HT, rat, 1 μM, % inhibition (5-HT transporter; Table II): 42%; BTX inhibition ([1]; Table II): 35
CCCCN1C(=O)C(Cc2ccccc2)NC12CCN(C(=O)c1cc(C(C)(C)C)nn1C)CC2 (stereo not shown) [Example 249, 3-Benzyl-1-butyl-8-(5-tert-butyl-2-methyl-2H-pyrazole-3-carbonyl)-1,4,8-triazaspiro[4,5]decan-2-one]	55%	34	–
CCCCN1C(=O)C(CCSC)NC12CCN(C(=O)C1COc3ccc(Cl)cc3C1)CC2 (stereo not shown) [Example 150, 1-Butyl-8-(6-Chloro-2H-chroman-3-carbonyl)-3-(2-methylsulfanylethyl)-1,4,8-triazaspiro[4,5]decan-2-one]	–	56	Uptake 5-HT, rat, 1 μM, % inhibition (5-HT transporter; Table III): 72%
COc1ccc(C(=O)N2CCC3(CC2)NCC(=O)N3Cc2ccccc2F)cc1 [Example 285, 1-(2-Fluorobenzyl)-8-(4-methoxybenzoyl)-1,4,8-triazaspiro[4,5]decan-2-one]	65%	32	–
CCSc1ncccc1C(=O)N1CCC2(CC1)NC(CC(C)C)C(=O)N2CCCCOC(C)=O (stereo not shown) [Example 257, Butyl 4-[8-(2-ethylsulfanylpyridin-3-carbonyl)-3-isobutyl-2-oxo-1,4,8-triazaspiro[4,5]dec-1-yl]acetate]	–	35	Uptake 5-HT, rat, 1 μM, % inhibition (5-HT transporter; Table III): 59%
Cl.O=C(CCc1ccccc1)N1CCC2(CC1)N[C@@H](Cc1ccccc1)C(=O)N2Cc1ccccc1 [Example 58, 1,3-(S)-dibenzyl-8-(3-phenylpropionyl)-1,4,8-triazaspiro[4,5]decan-2-one hydrochloride]	–	–	inhibition at 1 µM (5-HT transporter; Table II): 46%; BTX inhibition ([1]; Table II): 46
CCCCN1C(=O)C(Cc2ccccc2)NC12CCN(C(=O)C1CCCCC1)CC2 (stereo not shown) [Example 180, 3-Benzyl-1-butyl-8-cyclohexanecarbonyl-1,4,8-triazaspiro[4,5]decan-2-one]	63%	42	–
Cl.O=C1[C@H](Cc2ccccc2)NC2(CCNCC2)N1Cc1ccccc1 [Example 38, 1,3-(S)-Dibenzyl-1,4,8-triazaspiro[4,5]decan-2-one hydrochloride]	–	–	inhibition at 1 µM (5-HT transporter; Table II): 94%; BTX inhibition ([1]; Table II): 87
CCCC(C)C(=O)N1CCC2(CC1)NC(CC(C)C)C(=O)N2CC(=O)OCC (stereo not shown) [Example 291, Ethyl [3-isobutyl-8-(2-methylpentanoyl)-2-oxo-1,4,8-triazaspiro[4,5]dec-1-yl]acetate]	38%	33	–
CCCCN1C(=O)C(Cc2ccccc2)NC12CCN(C(=O)CCC1CCCC1)CC2 (stereo not shown) [Example 188, 3-Benzyl-1-butyl-8-(3-cyclopentylpropionyl)-1,4,8-triazaspiro[4,5]decan-2-one]	70%	69	–
O=C(c1ccccc1C(F)(F)F)N1CCC2(CC1)NCC(=O)N2Cc1ccccc1F [Example 303, 1-(2-Fluorobenzyl)-8-(2-trifluoromethylbenzoyl)-1,4,8-triazaspiro[4,5]decan-2-one]	–	30	–
O=C(c1ccc(F)c(F)c1)N1CCC2(CC1)NCC(=O)N2CCOc1ccccc1 [Example 142, 8-(3,4-Difluorobenzoyl)-1-(2-phenoxyethyl)-1,4,8-triazaspiro[4,5]decan-2-one]	–	32	–
